Here are results for six molecules from patent publication US6555541B1, “Substituted phenyl compounds with immunosuppressing activity and pharmaceutical compositions” (Astrazeneca UK Limited, priority 2000, dated 2003).

Where a name gives a salt, the structure may show the parent alone.

By melting point is commonly meant the temperature of the solid-liquid transition.

On to `O=C(CNc1ccc(F)c(F)c1)Nc1cc(N2CCNCC2)ccc1Cl` (as salt: hydrochloride), for which the melting point was 240 °C (dec.).

For `Cc1ccc(CN2CCNCC2)cc1NC(=S)CNc1ccc(F)c(F)c1` [Example 2, 2-(3,4-Difluoro-phenylamino)-N-(2-methyl-5-piperazin-1-ylmethyl-phenyl)-thioacetamide], the melting point is 72 to 82 °C (dec.).

As to `Cc1ccc(CN2CCNCC2)cc1NC(=O)CNc1ccc(F)c(F)c1` (as salt: hydrochloride) [Example 1, 2-(3,4-Difluorophenylano)-N-(2-methyl-5-piperazin-1-ylmethyl-phenyl)-acetamide, trihydrochloride], the melting point is 232 to 248 °C (dec.).

For the molecule `Cc1c(Cn2ccnc2)cccc1NC(=O)CNc1ccc(F)c(F)c1` [Example 17, 2-(3,4-Difluorophenylamino)-N-(3-imidazol-1-ylmethyl-2-methylphenyl)acetamide], the melting point was 160 °C (dec.).

For the molecule `Cc1cc(N2CCNCC2)ccc1NC(=O)CNc1ccc(F)c(F)c1` (as salt: hydrochloride) [Example 10, 2-(3,4-Difluoro-phenylamino)-N-(2-methyl-5-piperazin-1-yl-phenyl)-acetaniide, trihydrochloride], the melting point is over 230 °C.

`Cc1c(CN(C)C)cccc1NC(=O)CNc1ccc(F)c(F)c1` [Example 18, 2-(3,4-Difluorophenylamino)-N-(3-dimethylaminomethyl-2-methylphenyl)acetamide]: the melting point is 144 °C (dec.).
